Measured values reported in publication PMC3842914, “Meleagrin, a New FabI Inhibitor from Penicillium chryosogenum with at Least One Additional Mode of Action” (PLoS ONE, 2013).
Converted amounts (≈) assume the structure as drawn. Where two headings read alike, the source gives them in different places.

Experiments:
E. coli EW1b = test: Overexpression assay, MIC for pump-negative (tolC) E. coli EW1b; type: cell-based; conditions: Escherichia coli
Method: (§1) Whole-cell antimicrobial activity was determined by broth microdilution as described previously. The test strains except for S. pneumoniae were grown to mid-log phase in Mueller–Hinton broth and diluted 1,000-fold in the same medium. Cells (10^5/mL) were inoculated into Mueller–Hinton broth and dispensed at 0.2 mL/well into a 96-well microtiter plate. S. pneumoniae was grown in tryptic soy broth supplemented with 5% sheep blood. MICs were determined in triplicate by serial 2-fold dilutions of test compounds. […] Bacterial growth was determined by measuring the absorption at 650 nm by using a microtiter ELISA reader.
(§2) An overexpression assay using S. aureus RN4220, S. aureus RN4220 (pE194), and S. aureus RN4220 (pE194-fabI) was conducted to perform target validation of FabI inhibitors as described previously. Additionally, both fabI- and fabK-overexpressing E. coli were constructed to test a multitarget effect of the compounds. The wild-type fabI gene from the genomic DNA of E. coli W3110 was amplified by PCR by using the primers 5′-[…]-3′ and 5′-[…]-3′. The wild-type fabK gene from the genomic DNA of S. pneumoniae KCTC 5412 was amplified by PCR by using the primers 5′-[…]-3′ and 5′-[…] […]-3′. The resulting products were cloned into the pBAD-TOPO TA expression vector (Invitrogen, Carlsbad, CA, USA) to yield the pBAD-fabI and pBAD-fabK recombinant plasmids, which placed the expression of the genes fabI and fabK, respectively, under the control of the arabinose promoter. Recombinant pBAD-fabI and pBAD-fabK were then introduced into the pump-negative (tolC) E. coli EW1b via electroporation to generate E. coli EW1b (pBAD-fabI) and E. coli EW1b (pBAD-fabK), respectively.

E. coli EW1b(pBAD) = test: Overexpression assay, MIC for vector-containing E. coli EW1b (pBAD); type: cell-based; conditions: Escherichia coli
Method: as §1, §2

E. coli EW1b(pBAD-fabI) = test: Overexpression assay, MIC for fabI-overexpressing E. coli EW1b (pBAD-fabI); type: cell-based; conditions: Escherichia coli
Method: as §1, §2

E. coli EW1b(pBAD-fabK) = test: Overexpression assay, MIC for fabK-overexpressing E. coli EW1b (pBAD-fabK); type: cell-based; conditions: Escherichia coli
Method: as §1, §2

S. pneumoniae KCTC 3932 = test: Inhibition of macromolecular biosynthesis (radiolabeled precursor incorporation) in S. pneumoniae; type: cell-based, Streptococcus pneumoniae; conditions: drugs at 2 times the MIC
Method: (§3) To monitor the effects of compound 1 on lipid, DNA, RNA, protein, and cell wall biosynthesis, its effects on the incorporation of [1-^14C] acetate (50 mCi/mmol), [2-^14C] thymidine (59.8 mCi/mmol), [U-^14C] uridine (539 mCi/mmol), L-[U-^14C] leucine (306 mCi/mmol) or L-[U-^14C] isoleucine (329 mCi/mmol), and N-acetyl-D-[1-^14C] glucosamine (58.1 mCi/mmol) into S. aureus and S. pneumoniae were measured as described previously. S. aureus was exponentially grown to an A650 of 0.2 in Mueller–Hinton broth. S. pneumoniae was grown in tryptic soy broth supplemented with 5% sheep blood. […] An equal volume of DMSO solvent was added to the untreated control. After incubation with the radiolabeled precursors at 37°C for 1 h, followed by centrifugation, the cell pellets were washed twice with PBS buffer. After acetate incorporation, the total cellular lipids were extracted with chloroform-methanol-water. The incorporated radioactivity in the chloroform phase was measured by scintillation counting. For the other precursors, incorporation was terminated by adding 10% (w/v) TCA and cooling on ice for 20 min. The precipitated material was collected on Whatman GF/C glass microfiber filters, washed with TCA and ethanol, dried, and counted using a scintillation counter. The total counts incorporated at 1 h of incubation without inhibitors ranged from >7,000 for [U-^14C] uridine to <13,000 for [1-^14C] acetate. […] In all experiments, known antibacterial agents were included as positive controls.

S. aureus RN4220 [1] = test: Inhibition of macromolecular biosynthesis (radiolabeled precursor incorporation) in S. aureus; type: cell-based, Staphylococcus aureus; conditions: drugs at 2 times the MIC
Method: as §3

S. aureus FabI = molecular target: T1, S. aureus FabI (Staphylococcus aureus, UniProt Q6GI75); test: S. aureus FabI enzyme assay (NADPH use at 340 nm, t-o-NAC thioester substrate); type: biochemical; conditions: S. aureus FabI; read-out: IC50 saFabI
T1 construct: made in house
T1 sequence (Q6GI75 1-256): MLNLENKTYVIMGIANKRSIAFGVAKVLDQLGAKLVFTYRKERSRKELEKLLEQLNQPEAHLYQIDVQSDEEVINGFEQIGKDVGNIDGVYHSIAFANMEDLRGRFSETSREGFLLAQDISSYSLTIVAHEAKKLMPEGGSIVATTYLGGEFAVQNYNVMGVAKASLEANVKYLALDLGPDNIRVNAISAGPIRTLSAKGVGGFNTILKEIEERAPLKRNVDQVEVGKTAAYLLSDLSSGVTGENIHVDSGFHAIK
From the text: S. aureus FabI and E. coli FabI enzymes were cloned, overexpressed, and purified as described previously. The wild-type fabK gene was amplified by PCR from genomic DNA obtained from Streptococcus pneumoniae KCTC 5412 by using the primers 5′-[…]-3′ and 5′-[…]-3′, which contained NdeI and XhoI restriction sites, respectively. After the DNA sequence was confirmed, the gene was cloned into the pET22b vector (Novagen, Gibbstown, NJ, USA). The construct was transformed into E. coli BL21 (DE3) for expression following induction with isopropylthiogalactoside. The C-terminal His-tagged protein was purified as described previously. Assays were conducted in half-area, 96-well microtiter plates. The compounds were dissolved in DMSO and evaluated in 100-μL assay mixtures containing components specific for each enzyme (see below). Reduction of the trans-2-octenoyl N-acetylcysteamine (t-o-NAC thioester) substrate analog was measured spectrophotometrically following the utilization of NADH or NADPH at 340 nm at 30°C for the linear period of the assay. S. aureus FabI assays contained 50 mM sodium acetate (pH 6.5), 200 μM t-o-NAC thioester, 200 μM NADPH, and 150 nM S. aureus FabI.
NADH was used as a cofactor rather than NADPH for the E. coli FabI assay. Substrate concentrations used for the Lineweaver–Burk plot were 100, 200, 300, and 400 μM, whereas the concentrations of the cofactor were 100, 200, 400, and 600 μM. The rate of decrease in the amount of NADPH in each reaction was measured with a microtiter enzyme-linked immunosorbent assay (ELISA) reader by using the SOFTmax PRO software (Molecular Devices, Sunnyvale, CA, USA). The inhibitory activity was calculated according to the following formula: % of inhibition = 100× [1− (rate in the presence of compound/rate in the untreated control)]. IC50 values were calculated by fitting the data to a sigmoid equation. An equal volume of DMSO solvent was used for the untreated control. FabK assays contained 100 mM sodium acetate (pH 6.5), 2% glycerol, 200 mM NH4Cl, 50 µM t-o-NAC thioester, 200 µM NADH, and 150 nM S. pneumoniae FabK.

S. aureus RN4220 [2] = test: MIC by broth microdilution, S. aureus RN4220 (wild type); type: cell-based, Staphylococcus aureus; conditions: Staphylococcus aureus; S. aureus RN4220 (wild type)
Method: as §1

S. aureus RN4220 (pE194) = test: Overexpression assay, MIC for vector-containing S. aureus RN4220 (pE194); type: cell-based; conditions: Staphylococcus aureus, read-out: MIC S. aureus (pE194)
Method: as §1, §2

[3] = tested on: S. aureus RN4220 (pE194-fabI); test: Overexpression assay, MIC for fabI-overexpressing S. aureus RN4220 (pE194-fabI); type: cell-based; conditions: Staphylococcus aureus, read-out: MIC S. aureus (pE194-fabI)
Method: as §1, §2

**Q.** Which results are given for `CCCCC[C@H](CC(=O)NO)C(=O)N[C@H](C(=O)N1CCC[C@H]1CO)C(C)C` [Actinonin]?
**A.** MIC (E. coli EW1b; read-out: MIC E. coli EW1b (+) Ara): 1 µg/mL (≈ 2.59 µM); MIC (E. coli EW1b; read-out: MIC E. coli EW1b (−) Ara): 1 µg/mL (≈ 2.59 µM); MIC (E. coli EW1b(pBAD); read-out: MIC E. coli EW1b(pBAD) (+) Ara): 1 µg/mL (≈ 2.59 µM); MIC (E. coli EW1b(pBAD); read-out: MIC E. coli EW1b(pBAD) (−) Ara): 1 µg/mL (≈ 2.59 µM); MIC (E. coli EW1b(pBAD-fabI); read-out: MIC E. coli EW1b(pBAD-fabI) (+) Ara): 1 µg/mL (≈ 2.59 µM); MIC (E. coli EW1b(pBAD-fabI); read-out: MIC E. coli EW1b(pBAD-fabI) (−) Ara): 1 µg/mL (≈ 2.59 µM); MIC (E. coli EW1b(pBAD-fabK); read-out: MIC E. coli EW1b(pBAD-fabK) (+) Ara): 1 µg/mL (≈ 2.59 µM); MIC (E. coli EW1b(pBAD-fabK); read-out: MIC E. coli EW1b(pBAD-fabK) (−) Ara): 1 µg/mL (≈ 2.59 µM)

**Q.** For `C/C=C/C/C=C/CCC(=O)[C@H]1O[C@H]1C(N)=O` [cerulenin, reference compound], which “Inhibition of precursor incorporation, [1-14C] Acetate” value (S. pneumoniae KCTC 3932) is on record?
**A.** 95%

**Q.** Which “Inhibition of precursor incorporation, L-[U-14C] Isoleucine” value (S. aureus RN4220 [1]) does the source give for `O=C(N[C@H](CO)[C@H](O)c1ccc([N+](=O)[O-])cc1)C(Cl)Cl` [chlorampenicol, chloramphenicol, reference compound] here?
**A.** 74%

**Q.** And the “Inhibition of precursor incorporation, L-[U-14C] Isoleucine” value (S. pneumoniae KCTC 3932)?
**A.** 85%

**Q.** What does the source list for `CO[C@H]1/C=C/O[C@@]2(C)Oc3c(C)c(O)c4c(O)c(c(/C=N/N5CCN(C)CC5)c(O)c4c3C2=O)NC(=O)/C(C)=C\C=C\[C@H](C)[C@H](O)[C@@H](C)[C@@H](O)[C@@H](C)[C@H](OC(C)=O)[C@@H]1C` [rifampin, reference compound]?
**A.** Inhibition of precursor incorporation, [U-14C] Uridine (S. aureus RN4220 [1]): 69%; Inhibition of precursor incorporation, [U-14C] Uridine (S. pneumoniae KCTC 3932): 92%

**Q.** Which results are given for `CC[C@H]1OC(=O)[C@H](C)[C@@H](O[C@H]2C[C@@](C)(OC)[C@@H](O)[C@H](C)O2)[C@H](C)[C@@H](O[C@@H]2O[C@H](C)C[C@H](N(C)C)[C@H]2O)[C@](C)(O)C[C@@H](C)C(=O)[C@H](C)[C@@H](O)[C@]1(C)O` [Erythromycin, reference compound]?
**A.** IC50 (S. aureus FabI): > 100 µM; MIC (S. aureus RN4220 [2]): 0.5 µg/mL (≈ 0.681 µM); MIC (S. aureus RN4220 (pE194)): 64 µg/mL (≈ 87.2 µM); MIC [3]: 64 µg/mL (≈ 87.2 µM)
